The results in this text go back to patent publication US10105357B2, “Indication of antibiotic drugs for preparation of cancer inhibition pharmaceutical composition” (LAUNX BIOMEDICAL CO., LTD., priority 2014, dated 2018).

Where a name gives a salt, the structure may show the parent alone. Read-outs that look alike come from different tables or passages of the source.

Holding throughout (assay type): cell-based, human
One assay concerns cancer cell lines. Description: Cell viability analysis (WST-1) on cancer cell lines. Particulars: drug 10 μM, 72 hours, WST-1; Table 3.
In assay [1] the test system is PC3 (p53−) (Prostate Adenocarcinoma). Description: Cell viability analysis, prostate cancer PC3. The conditions noted are these: Homo sapiens, 72 h.
In assay [2] the test system is HL-60 (Acute Promyelocytic Leukemia). Description: Cell viability analysis, leukemia HL-60. Particulars: Homo sapiens, HL-60, 72 h.
Assay [3] has as its system AGS (Gastric Adenocarcinoma). Description: Cell viability analysis, gastric cancer AGS. Particulars: Homo sapiens, 72 h.
For assay [4], the system named is MCF7 (Mammary Gland, Adenocarcinoma). Put plainly: Cell viability analysis, breast cancer MCF7. Particulars: Homo sapiens, MCF7, 72 h.
Assay [5] has as its system A549 (Lung Adenocarcinoma). Put plainly: Cell viability analysis, lung cancer A549. The conditions noted are these: Homo sapiens, A549, 72 h.
In assay [6] the test system is A375 (Amelanotic Melanoma). Description: Cell viability analysis, skin cancer A375. Particulars: Homo sapiens, A-375, 72 h.
The test system of assay [7] is TSGH-8301 (Urinary Bladder Carcinoma). Description: Cell viability analysis, bladder cancer TSGH-8301. Particulars: Homo sapiens, 72 h.
The test system of assay [8] is HI650 (Lung Adenocarcinoma). Put plainly: Cell viability analysis, lung cancer HI650. The conditions noted are these: Homo sapiens, NCI-H1650, 72 h.
Assay [9] relates to HepG2 (Hepatocellular Carcinoma). Description: Cell viability analysis, hepatic cancer HepG2. Particulars: Homo sapiens, HepG2, 72 h.
The subject of assay [10] is HeLa (Cervix Adenocarcinoma). Put plainly: Cell viability analysis, cervical cancer HeLa. The conditions noted are these: Homo sapiens, HeLa, 72 h.
Assay [11] deals with LoVo (Colorectal Adenocarcinoma). Description: Cell viability analysis, colon cancer LoVo. Particulars: Homo sapiens, LoVo, 72 h, read-out: cell viability (survival rate), LoVo, drug 10 μM, 72 hours, WST-1, OD450 nm.
Assay [12] has as its system MKN-45 (Gastric Adenocarcinoma). Put plainly: Cell viability analysis, gastric cancer MKN-45. The conditions noted are these: Homo sapiens, MKN-45, 72 h.
Setting [13] is: read-out: cell viability (survival rate), PC3, drug 10 μM, 72 hours, WST-1, OD450 nm.
Setting [14] is: read-out: cell viability (survival rate), HL-60, drug 10 μM, 72 hours, WST-1, OD450 nm.
[15] abbreviates: read-out: cell viability (survival rate), AGS, drug 10 μM, 72 hours, WST-1, OD450 nm.
Setting [16] is: read-out: cell viability (survival rate), MCF7, drug 10 μM, 72 hours, WST-1, OD450 nm.
Setting [17] is: read-out: cell viability (survival rate), A549, drug 10 μM, 72 hours, WST-1, OD450 nm.
[18] abbreviates: read-out: cell viability (survival rate), A375, drug 10 μM, 72 hours, WST-1, OD450 nm.
Setting [19] is: read-out: cell viability (survival rate), TSGH, drug 10 μM, 72 hours, WST-1, OD450 nm.
Where [20] appears, read: read-out: cell viability (survival rate), H1650, drug 10 μM, 72 hours, WST-1, OD450 nm.
The mark [21] stands for this setting: read-out: cell viability (survival rate), HepG2, drug 10 μM, 72 hours, WST-1, OD450 nm.
[22] abbreviates: read-out: cell viability (survival rate), HeLa, drug 10 μM, 72 hours, WST-1, OD450 nm.
The mark [23] stands for this setting: read-out: cell viability (survival rate), MKN-45, drug 10 μM, 72 hours, WST-1, OD450 nm.
Setting [24] is: drug 10 μM, 72 hours, WST-1, OD450 nm, read-out: cell viability (survival rate), PC3.
Setting [25] is: drug 10 μM, 72 hours, WST-1, OD450 nm, read-out: cell viability (survival rate), HL-60.
[26] abbreviates: drug 10 μM, 72 hours, WST-1, OD450 nm, read-out: cell viability (survival rate), AGS.
Where [27] appears, read: drug 10 μM, 72 hours, WST-1, OD450 nm, read-out: cell viability (survival rate), MCF7.
Where [28] appears, read: drug 10 μM, 72 hours, WST-1, OD450 nm, read-out: cell viability (survival rate), A549.
Where [29] appears, read: drug 10 μM, 72 hours, WST-1, OD450 nm, read-out: cell viability (survival rate), A375.
The mark [30] stands for this setting: drug 10 μM, 72 hours, WST-1, OD450 nm, read-out: cell viability (survival rate), TSGH.
Setting [31] is: drug 10 μM, 72 hours, WST-1, OD450 nm, read-out: cell viability (survival rate), H1650.
Where [32] appears, read: drug 10 μM, 72 hours, WST-1, OD450 nm, read-out: cell viability (survival rate), HepG2.
The mark [33] stands for this setting: drug 10 μM, 72 hours, WST-1, OD450 nm, read-out: cell viability (survival rate), HeLa.
Setting [34] is: drug 10 μM, 72 hours, WST-1, OD450 nm, read-out: cell viability (survival rate), MKN-45.

For the molecule `CC(C)NCC(O)c1ccc(O)c(O)c1` (stereo not drawn) [Isoprenaline hydrochloride], the “inhibition effect on different cancer cell lines” value in the assay with cancer cell lines was “significant inhibition effect”. The viability at 10 µM came to 73.6% in assay [1] (setting [13]); 96.8% in assay [2] (setting [14]); 72% in assay [3] (setting [15]); 73.2% in [4] (setting [16]); 56.1% in assay [5] (setting [17]); 90% in assay [6] (setting [18]). Besides, the viability at 10 µM stood at 81.6% in assay [7] (setting [19]); 39.9% in assay [8] (setting [20]); 81.4% in assay [9] (setting [21]); 91.1% in assay [10] (setting [22]); 80.6% in [11]; 79.6% in [12] (setting [23]).

In the case of `Cc1c(OCC(F)(F)F)ccnc1C[S+]([O-])c1nc2ccccc2[nH]1` (stereo not drawn) [Lansoprazole], the “inhibition effect on different cancer cell lines” value with cancer cell lines is reported as “significant inhibition effect”. Also, the viability at 10 µM in [1] (setting [24]) is 94.2%; in assay [2] (setting [25]), 78.6%; in assay [3] (setting [26]) it was 71.5%; in assay [4] (setting [27]), 141%; in assay [5] (setting [28]), 84.5%; in [6] (setting [29]), 60.6%. Besides, the viability at 10 µM in assay [7] (setting [30]) is 109%; in assay [8] (setting [31]), 45.5%; in [9] (setting [32]), 72.3%; in [10] (setting [33]), 53.6%; in [11] it was 96.1%; in [12] (setting [34]) it was 74.5%.

As to `CCN1CCN(c2cc3c(cc2F)c(=O)c(C(=O)O)cn3C2CC2)CC1` [Enrofloxacin], the “inhibition effect on different cancer cell lines” value with cancer cell lines was “significant inhibition effect”. For the same molecule, the viability at 10 µM in assay [1] (setting [13]) is 48.6%; in assay [2] (setting [14]), 86.6%; in [3] (setting [15]), 94.5%; in assay [4] (setting [16]), 66.6%; in [5] (setting [17]), 67.5%; in assay [6] (setting [18]) it was 65.2%. In addition, the viability at 10 µM in [7] (setting [19]) was determined as 77.9%; in [8] (setting [20]), 44.5%; in assay [9] (setting [21]), 77.2%; in [10] (setting [22]), 67%; in assay [11], 84.8%; in [12] (setting [23]), 37.4%.

`CC(=O)SCC(Cc1ccccc1)C(=O)NCC(=O)OCc1ccccc1` (stereo not drawn) [Racecadotril (Acetorphan), Racecadotril]: the “inhibition effect on different cancer cell lines” value in the assay with cancer cell lines is on record as “significant inhibition effect”. Also, the viability at 10 µM in assay [1] (setting [24]) came out at 107%; in assay [2] (setting [25]), 122%; in [3] (setting [26]), 84%; in [4] (setting [27]) it was 108%; in assay [5] (setting [28]), 95.8%; in assay [6] (setting [29]), 66.2%. The viability at 10 µM in assay [7] (setting [30]) was 65.6%; in assay [8] (setting [31]), 82.9%; in assay [9] (setting [32]), 88.8%; in assay [10] (setting [33]), 65.6%; in assay [11], 74.5%; in assay [12] (setting [34]), 97.4%.

Take `NNC(=O)c1ccncc1` [Isoniazid (Tubizid), Isoniazid]: the “inhibition effect on different cancer cell lines” value with cancer cell lines was “significant inhibition effect”. Further, the viability at 10 µM in [1] (setting [24]) was 39.6%; in assay [2] (setting [25]), 102%; in assay [3] (setting [26]) it was 50.5%; in [4] (setting [27]), 44.7%; in assay [5] (setting [28]), 45.7%; in [6] (setting [29]) it was 54.9%. For the same molecule, the viability at 10 µM in assay [7] (setting [30]) is 42.2%; in assay [8] (setting [31]) it was 64.7%; in assay [9] (setting [32]), 110%; in [10] (setting [33]) it was 77.9%; in assay [11], 71%; in [12] (setting [34]), 44.6%.

`CCn1cc(C(=O)O)c(=O)c2cc(F)c(N3CCNCC3)cc21` [Norfloxacin (Norxacin), Norfloxacin]: the “inhibition effect on different cancer cell lines” value in the assay with cancer cell lines is on record as “significant inhibition effect”. Moreover, the viability at 10 µM came out at 72.2% in [1] (setting [13]); 87.7% in assay [2] (setting [14]); 63.8% in assay [3] (setting [15]); 94.8% in assay [4] (setting [16]); 84.8% in assay [5] (setting [17]); 73.8% in assay [6] (setting [18]). The viability at 10 µM came out at 75.9% in [7] (setting [19]); 75% in assay [8] (setting [20]); 90.5% in [9] (setting [21]); 78.7% in [10] (setting [22]); 88% in assay [11]; 68.9% in assay [12] (setting [23]).

Consider `CCCCCCCCCCCC[N+](C)(C)CCOc1ccccc1` [Domiphen Bromide], for which the “inhibition effect on different cancer cell lines” value with cancer cell lines is “significant inhibition effect”. Also, the viability at 10 µM in assay [1] (setting [24]) is 38.9%; in assay [2] (setting [25]), 30%; in assay [3] (setting [26]), 32.5%; in [4] (setting [27]), 31.3%; in [5] (setting [28]), 28.7%; in [6] (setting [29]) it was 36.3%. In addition, the viability at 10 µM was 37.3% in assay [7] (setting [30]); 46.5% in assay [8] (setting [31]); 62.1% in [9] (setting [32]); 38% in [10] (setting [33]); 48.7% in [11]; 44.4% in [12] (setting [34]).

In the case of `O=C1OC(CN2CCOCC2)CN1/N=C/c1ccc([N+](=O)[O-])o1` (stereo not drawn) [Furaltadone HCl], the “inhibition effect on different cancer cell lines” value with cancer cell lines is listed as “significant inhibition effect”. In addition, the viability at 10 µM was 99.2% in assay [1] (setting [13]); 64.6% in assay [2] (setting [14]); 68.2% in assay [3] (setting [15]); 103% in [4] (setting [16]); 67.9% in [5] (setting [17]); 66% in assay [6] (setting [18]). Besides, the viability at 10 µM in assay [7] (setting [19]) worked out at 81.3%; in [8] (setting [20]), 83.1%; in assay [9] (setting [21]), 83.2%; in assay [10] (setting [22]) it was 64%; in assay [11], 62.2%; in [12] (setting [23]), 72.6%.

With `Cc1cccc(C)c1OCC(=O)N[C@@H](Cc1ccccc1)[C@@H](O)C[C@H](Cc1ccccc1)NC(=O)[C@H](C(C)C)N1CCCNC1=O` [Lopinavir (ABT-378), Lopinavir], in the assay with cancer cell lines, the “inhibition effect on different cancer cell lines” value is reported as “significant inhibition effect”. In addition, the viability at 10 µM in assay [1] (setting [13]) was 68%; in assay [2] (setting [14]) it was 92.4%; in [3] (setting [15]) it was 55.4%; in assay [4] (setting [16]), 77.9%; in assay [5] (setting [17]) it was 63.8%; in assay [6] (setting [18]), 83.1%. In addition, the viability at 10 µM stood at 82.2% in assay [7] (setting [19]); 53.1% in [8] (setting [20]); 93.1% in assay [9] (setting [21]); 116% in [10] (setting [22]); 85.1% in [11]; 74.2% in assay [12] (setting [23]).
